Experimental findings from article PMC8198214, “Synthesis and Biological Evaluation of Spirocyclic Chromane Derivatives as a Potential Treatment of Prostate Cancer” (Molecules, 2021) are described below.

The test system of this test is 22Rv1 cells. Briefly: 22Rv1 cell viability (CCK-8) antiproliferation assay. Conditions: for IC50: 22Rv1 cells, means of two independent experiments (n = 2). The test is classed as cell-based, human. On the procedure: The 22Rv1 prostate cancer cell line in this study was purchased from KeyGEN Biotech Co. Ltd. (Nanjing, Jiangsu, China ). The cells were cultured in RPMI 1640 medium and maintained at 37 °C in a 5% CO2 incubator. For the cell viability assay, the cell slurry was diluted to required volume at a density of 80,000 cells/mL. Then, 100 μL the cell slurry was seeded in each well of the 96-well plate. The cells were incubated for 72 h at 37 °C, 5% CO2 under humidified condition. The reference and test compounds solution (200×) were prepared with DMSO and were diluted from 200× to 1× with culture medium (RPMI 1640 medium without phenol red and containing 10% fetal calf serum, penicillin (100U/mL), streptomycin (100 μg/mL) and 0.1 nM DHT). The previous culture medium was removed and 200 μL/well of the compound solution (1×) was added to assay plate (final conc: 1×). Then the cells were incubated at 37 °C, 5% CO2 under humidified conditions. 5 Days later, the CCK-8 assay reagent was equilibrated at room temperature for 30 min prior to use. CCK-8 was mixed with fresh medium at a ratio of 1:10 and 100 μL of the diluted CCK8 reagent was added to each well and the plates were incubated for 4.5 h at 37 °C. Finally, absorbance value (OD value) was read on plate reader. GraphPad Prism v5.0 software was used to process data for IC50.

Regarding `CNC(=O)Cn1cc(-c2ccc3c(c2)CCC32OC(=O)N(CC(=O)N(Cc3ccc(F)cc3)[C@@H]3CCc4ccccc43)C2=O)cn1` (stereo partly drawn) [B10, N-((R)-2,3-Dihydro-1H-inden-1-yl)-N-(4-fluorobenzyl)-2-(5-(1-(2-(methylamino)-2-oxoethyl)-1H-pyrazol-4-yl)-2′,4′-dioxo-2,3-dihydrospiro[indene-1,5′-oxazolidin]-3′-yl)acetamide], the IC50 – broadly, the concentration that inhibits the measured activity by half – (Homo sapiens, Table 2) was 1660 nM.

As for “N-(4-Fluorobenzyl)-2-(5-(1-(2-(methylamino)-2-oxoethyl)-1H-pyrazol-4-yl)-2′,5′-dioxo-2,3-dihydrospiro[indene-1,3′-pyrrolidin]-1′-yl)-N-((S)-1,1,1-trifluoropropan-2-yl)acetamide [A7]”, the IC50 (Table 1) turned out to be 1800 nM.

Take “N-(4-Fluorobenzyl)-2-(5′-(3-methylureido)-2′′,4′′-dioxo-2′H-dispiro[cyclopropane-1,3′-indene-1′,5′′-oxazolidin]-3′′-yl)-N-((S)-1,1,1-trifluoropropan-2-yl)acetamide [A2]”: the IC50 (Table 1) came to 351 nM.

Regarding `Cn1cc(-c2ccc3c(c2)CCC32OC(=O)N(CC(=O)N(Cc3ccc(F)cc3)[C@H]3CCc4ccccc43)C2=O)cn1` (stereo partly drawn) [B4, N-((S)-2,3-Dihydro-1H-inden-1-yl)-N-(4-fluorobenzyl)-2-(5-(1-methyl-1H-pyrazol-4-yl)-2′,4′-dioxo-2,3-dihydrospiro[indene-1,5′-oxazolidin]-3′-yl)acetamide], where the note is “Homo sapiens, Table 2”, the IC50 is 252 nM.

`CNC(=O)Cn1cc(-c2ccc3c(c2)CCC32OC(=O)N(CC(=O)N(Cc3ccc(F)cn3)[C@@H]3CCc4ccccc43)C2=O)cn1` (stereo partly drawn) [B12, N-((R)-2,3-Dihydro-1H-inden-1-yl)-N-((5-fluoropyridin-2-yl)methyl)-2-(5-(1-(2-(methylamino)-2-oxoethyl)-1H-pyrazol-4-yl)-2′,4′-dioxo-2,3-dihydrospiro[indene-1,5′-oxazolidin]-3′-yl)acetamide]: the “fold increased potency versus B10” value (22Rv1 cell antiproliferation) was found to be 5 fold. The same compound returned an IC50 (Homo sapiens, Table 2) of 265 nM.

`CNC(=O)Cn1cc(-c2ccc3c(c2)CCC32OC(=O)N(CC(=O)N(Cc3ccc(F)cc3)[C@H]3CCc4ccccc43)C2=O)cn1` (stereo partly drawn) [B7, N-((S)-2,3-Dihydro-1H-inden-1-yl)-N-(4-fluorobenzyl)-2-(5-(1-(2-(methylamino)-2-oxoethyl)-1H-pyrazol-4-yl)-2′,4′-dioxo-2,3-dihydrospiro[indene-1,5′-oxazolidin]-3′-yl)acetamide]: the IC50 (Homo sapiens, Table 2) was found to be 270 nM.

The compound `Cn1cc(-c2ccc3c(c2)CCC32OC(=O)N(CC(=O)N3CCn4c(nnc4C(F)(F)F)C3)C2=O)cn1` (centres unmarked) [B18, 5-(1-Methyl-1H-pyrazol-4-yl)-3′-(2-oxo-2-(3-(trifluoromethyl)-5,6-dihydro-[1,2,4]triazolo[4,3-a]pyrazin-7(8H)-yl)ethyl)-2,3-dihydrospiro[indene-1,5′-oxazolidine]-2′,4′-dione] came in with an IC50 (Homo sapiens, Table 2) of over 25000 nM.

In turn, “N-(4-Fluorobenzyl)-N-((S)-1-methyl-4,5,6,7-tetrahydro-1H-indazol-4-yl)-2-(5-(1-(2-(methylamino)-2-oxoethyl)-1H-pyrazol-4-yl)-2′,4′-dioxo-2,3-dihydrospiro [indene-1,5′-oxazolidin]-3′-yl)acetamide [B14]” gave an IC50 (Table 2) of 1090 nM.

`CNC(=O)Nc1ccc2c(c1)CCC21OC(=O)N(CC(=O)N2CCCc3ccc(C(F)F)cc32)C1=O` (centres unmarked) [B17, 1-(3′-(2-(7-(Difluoromethyl)-3,4-dihydroquinolin-1(2H)-yl)-2-oxoethyl)-2′,4′-dioxo-2,3-dihydrospiro[indene-1,5′-oxazolidin]-5-yl)-3-methylurea] had an IC50 (Homo sapiens, Table 2) of 8700 nM.

As for `CNC(=O)Cn1cc(-c2ccc3c(c2)CCC32OC(=O)N(CC(=O)N(Cc3ccc(F)cc3)[C@H]3CCc4cc(F)ccc43)C2=O)cn1` (stereo partly drawn) [B9, N-((S)-5-Fluoro-2,3-dihydro-1H-inden-1-yl)-N-(4-fluorobenzyl)-2-(5-(1-(2-(methylamino)-2-oxoethyl)-1H-pyrazol-4-yl)-2′,4′-dioxo-2,3-dihydrospiro[indene-1,5′-oxazolidin]-3′-yl)acetamide], the IC50 (Homo sapiens, Table 2) amounted to 334 nM.
